In patent EP2208725A1, “Novel specific inhibitors of ubiquitin specific protease 7, the pharmaceutical compositions thereof and their therapeutic applications” (Hybrigenics S.A., priority 2009, dated 2010):
pIC50: −log10 of the molar value.

Assays:
human USP7 = target: T1, human USP7 (Homo sapiens, UniProt Q93009); assay: USP7 activity assay (Ub-AMC); format: biochemical; conditions: 300 nM Ub-AMC, 100 pM enzyme; compounds tested from 200 µM to 91 nM; unit inferred; read-out: Inhibition of cysteine protease activities: USP7
T1 construct: Full-length wild-type human USP7; His (N); made in house; host or cells: Spodoptera frugiperda Sf9 (baculovirus, pFastBac-HT)
T1 sequence (Q93009 whole entry): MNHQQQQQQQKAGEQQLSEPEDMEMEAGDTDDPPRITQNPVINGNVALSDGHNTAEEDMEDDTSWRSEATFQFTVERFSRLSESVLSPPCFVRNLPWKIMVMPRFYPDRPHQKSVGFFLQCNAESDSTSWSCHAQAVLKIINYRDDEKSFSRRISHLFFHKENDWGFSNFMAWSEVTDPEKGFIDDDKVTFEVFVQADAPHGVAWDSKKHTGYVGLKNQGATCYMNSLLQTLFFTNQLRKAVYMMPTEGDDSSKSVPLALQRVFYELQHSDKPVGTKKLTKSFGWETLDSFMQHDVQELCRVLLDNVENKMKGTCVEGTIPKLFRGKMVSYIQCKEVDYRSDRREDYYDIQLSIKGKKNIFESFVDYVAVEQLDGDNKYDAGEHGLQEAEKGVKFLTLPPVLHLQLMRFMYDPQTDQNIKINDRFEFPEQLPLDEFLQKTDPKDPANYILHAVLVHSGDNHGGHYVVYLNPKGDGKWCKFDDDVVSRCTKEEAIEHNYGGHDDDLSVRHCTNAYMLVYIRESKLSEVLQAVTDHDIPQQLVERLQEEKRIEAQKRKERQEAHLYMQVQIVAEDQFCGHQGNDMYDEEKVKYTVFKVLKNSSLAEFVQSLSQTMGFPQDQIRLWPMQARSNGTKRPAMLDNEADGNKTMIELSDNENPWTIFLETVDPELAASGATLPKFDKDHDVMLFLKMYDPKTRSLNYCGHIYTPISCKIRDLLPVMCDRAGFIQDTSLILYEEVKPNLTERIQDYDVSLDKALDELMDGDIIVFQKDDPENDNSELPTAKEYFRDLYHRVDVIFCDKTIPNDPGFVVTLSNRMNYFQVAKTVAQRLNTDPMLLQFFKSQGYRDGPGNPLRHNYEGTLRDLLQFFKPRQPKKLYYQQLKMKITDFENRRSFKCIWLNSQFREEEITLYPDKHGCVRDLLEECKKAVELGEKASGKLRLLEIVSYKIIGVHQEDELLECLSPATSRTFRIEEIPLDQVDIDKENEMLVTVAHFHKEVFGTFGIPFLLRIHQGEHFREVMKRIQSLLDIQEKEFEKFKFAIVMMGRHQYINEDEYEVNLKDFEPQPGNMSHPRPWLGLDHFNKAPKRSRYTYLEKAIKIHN
Description: The cDNA encoding USP7 was obtained by PCR amplification from placenta mRNA. USP7 cDNA was subcloned by PCR into a baculovirus expression vector (pFastBac-HT; Invitrogen). Full-length wild-type human USP7 and its catalytic mutant (cysteine 223 replaced by alanine, C223A) were produced as N-terminally His-tagged fusions in Spodoptera frugiperda cells (Sf9, Invitrogen), using the Bac-to-Bac Baculovirus system from Invitrogen according to the manufacturer's instructions. pFastBac-HT-B-USP7 was used to transform DH10bac cells (Invitrogen), and blue/white selection was carried out on X-gal/IPTG agar plates. Bacmid DNA was prepared by an alkaline lysis procedure. The integrity of the bacmid minipreps and their orientation were checked by PCR, using generic and specific primers. Sf9 cells were cultured in InsectXpress medium (Cambrex) at 27°C and transfected with the corresponding bacmid, using GeneShuttle 40 (Q-BIOgen). Viruses were recovered in the supernatant 72 h after transfection. Viruses were amplified by infecting Sf9 cells in 50 ml InsectXpress medium in a 150 cm^2 cell culture flask with 500 µl of the supernatant from transfected Sf9 cells. Following the second round of amplification, Sf9 cells were recovered by rapid SDS lysis, boiled for 5 min at 100°C, sonicated briefly and centrifuged for 20 min at 14,000 g. Expression levels in infected Sf9 cells were compared with those in uninfected cells. […] Beads were extensively washed (50 mM sodium phosphate buffer pH 7.0, 500 mM NaCl, 10 mM Imidazole, 0.5% Triton X-100 and 10% glycerol) and bound proteins were eluted in wash buffer supplemented with 250 mM Imidazole (Sigma). Eluted fractions were resolved on 4-12% NuPAGE gels (Novex, Invitrogen). Fractions containing high concentrations of purified proteins (purity > 95%) were dialyzed (20 mM Tris HCl pH 7.6, 200 mM NaCl, 1 mM DTT, 1 mM EDTA and 10% glycerol) were aliquoted and snap frozen in liquid nitrogen before storage at -80°C.
USP7 was diluted in USP buffer (50 mM Tris HCl; 0.5 mM EDTA; 5 mM DTT; 0.01 % Triton X-100; Bovine Serum Albumin 0.05 mg.ml^-1 pH7.6). Compounds stocks (100 mM) were stored at -20°C in DMSO. Compounds were tested at different concentrations: from 200 µM to 91 nM.
Reactions were performed as duplicates in Black LJL 96 well plates (HE microplates; Molecular Devices; 20 µl final reaction volume). The substrate concentration for USP7 was 300 nM Ub-AMC (Chem. Biol., 2003, 10, p. 837-846) (Boston Biochem). The concentrations of the enzyme (USP7) in specificity assays was 100 pM. The concentrations were determined in order to perform specificity assays under initial velocities at fixed substrate concentration. Compounds were pre-incubated with enzymes for 30 minutes at 25°C. Reactions were initiated by addition of substrate to the plates containing the enzymes (+/- compounds) diluted in assay buffer. Reactions were incubated for 60 minutes at 37°C. Reactions were stopped by adding acetic acid (100 mM final). Readings were performed on a Pherastar Fluorescent Reader (BMG). λ […]. Data (mean values +/- standard deviation) were analyzed as % of control (no compound) and plotted as percentage versus the Log of the compound concentration using GraphPad (Prism). Data were fitted to a sigmoidal model (variable slope).

UCH-L1 = target: T2, UCH-L1 (Homo sapiens, UniProt P09936); assay: UCH-L1 activity assay (Ub-AMC); format: biochemical; conditions: 400 nM Ub-AMC, 2.5 nM enzyme; compounds tested from 200 µM to 91 nM; unit inferred; read-out: Inhibition of cysteine protease activities: Uch-L1
T2 sequence (P09936 1-223): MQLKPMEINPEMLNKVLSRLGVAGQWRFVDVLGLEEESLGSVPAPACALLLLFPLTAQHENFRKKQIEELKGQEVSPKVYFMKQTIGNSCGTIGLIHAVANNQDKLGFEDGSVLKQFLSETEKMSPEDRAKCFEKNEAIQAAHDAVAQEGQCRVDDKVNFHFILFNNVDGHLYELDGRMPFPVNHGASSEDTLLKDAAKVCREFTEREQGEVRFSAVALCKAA
Protocol: UCH-L1 was diluted in USP buffer (50 mM Tris HCl; 0.5 mM EDTA; 5 mM DTT; 0.01% Triton X-100; Bovine Serum Albumin 0.05 mg.ml^-1 pH7.6). Compounds stocks (100 mM) were stored at -20°C in DMSO. Compounds were tested at different concentrations: from 200 µM to 91 nM. Reactions were performed as duplicates in Black LJL 96 well plates (HE microplates; Molecular Devices; 20 µl final reaction volume). The substrate concentration for UCH-L1 was 400 nM Ub-AMC (Boston Biochem). The concentration of the enzyme (UCH-L1) in specificity assays was 2.5 nM. The concentrations were determined in order to perform specificity assays under initial velocities at fixed substrate concentration. Compounds were pre-incubated with enzymes for 30 minutes at 25°C. Reactions were initiated by addition of substrate to the plates containing the enzymes (+/- compounds) diluted in assay buffer. Reactions were incubated for 60 minutes at 37°C. Reactions were stopped by adding acetic acid (100 mM final). Readings were performed on a Pherastar Fluorescent Reader (BMG). λ […]. Data (mean values +/- standard deviation) were analyzed as % of control (no compound) and plotted as percentage versus the Log of the compound concentration using GraphPad (Prism). Data were fitted to a sigmoidal model (variable slope).

| Structure (SMILES) | pIC50 (human USP7) | pIC50 (UCH-L1) |
| --- | --- | --- |
| CC(=O)C1=C(O)C(=O)N(CCc2ccc(Cl)cc2)C1c1ccc(Br)cc1 (centres unmarked) [Example 25, 4-acetyl-5-(4-bromo-phenyl)-1-[2-(4-chloro-phenyl)-ethyl]-3-hydroxy-1,5-dihydro-pyrrol-2-one] | 5.51 | < 3.70 |
| CC(=O)C1=C(O)C(=O)N(CCc2ccc(Br)cc2)C1c1ccc(Br)cc1 (centres unmarked) [Example 26, 4-acetyl-5-(4-bromo-phenyl)-1-[2-(4-bromo-phenyl)-ethyl]-3-hydroxy-1,5-dihydro-pyrrol-2-one] | 5.57 | < 3.70 |
| CC(=O)C1=C(O)C(=O)N(CCc2ccc(Cl)c(Cl)c2)C1c1ccc(Br)cc1 (centres unmarked) [Example 28, 4-acetyl-5-(4-bromo-phenyl)-1-[2-(3,4-dichloro-phenyl)-ethyl]-3-hydroxy-1,5-dihydro-pyrrol-2-one] | 5.79 | < 3.70 |
| COc1cccc(CCN2C(=O)C(O)=C(C(C)=O)C2c2ccc(Br)cc2)c1 (centres unmarked) [Example 30, 4-acetyl-5-(4-bromo-phenyl)-3-hydroxy-1-[2-(3-methoxyphenyl)-ethyl]-1,5-dihydro-pyrrol-2-one] | 4.95 | < 3.70 |
| COc1ccc(CCN2C(=O)C(O)=C(C(C)=O)C2c2ccc(Br)cc2)cc1 (centres unmarked) [Example 32, 4-acetyl-5-(4-bromo-phenyl)-3-hydroxy-1-[2-(4-methoxyphenyl)-ethyl]-1,5-dihydro-pyrrol-2-one] | 5.28 | < 3.70 |
| CC(=O)C1=C(O)C(=O)N(CCc2ccc(F)cc2)C1c1ccc(Br)cc1 (centres unmarked) [Example 33, 4-acetyl-5-(4-bromo-phenyl)-3-hydroxy-1-[2-(4-fluorophenyl)-ethyl]-1,5-dihydro-pyrrol-2-one] | 5.52 | < 3.70 |
| CCOc1ccc(CCN2C(=O)C(O)=C(C(C)=O)C2c2ccc(Br)cc2)cc1 (centres unmarked) [Example 34, 4-acetyl-5-(4-bromo-phenyl)-3-hydroxy-1-[2-(4-ethoxy-phenyl)-ethyl]-1,5-dihydro-pyrrol-2-one] | 5.18 | < 3.70 |
| CC(=O)C1=C(O)C(=O)N(CCc2ccccc2)C1c1ccc2c(c1)OCO2 (centres unmarked) [Example 37, 4-acetyl-5-benzo[1,3]dioxol-5-yl-3-hydroxy-1-phenethyl-1,5-dihydro-pyrrol-2-one] | 5.15 | < 3.70 |
| CC(=O)C1=C(O)C(=O)N(CCc2ccccc2)C1c1ccc(Br)c(Br)c1 (centres unmarked) [Example 41, 4-acetyl-5-(3,4-dibromo-phenyl)-3-hydroxy-1-phenethyl-1,5-dihydro-pyrrol-2-one] | 5.05 | < 3.70 |
| CC(=O)C1=C(O)C(=O)N(CCc2ccccc2)C1c1cccnc1Cl (centres unmarked) [Example 42, 4-acetyl-5-(2-chloro-pyridin-3-yl)-3-hydroxy-1-phenethyl-1,5-dihydro-pyrrol-2-one] | 4.92 | < 3.70 |
| CC(=O)C1=C(O)C(=O)N(CCc2ccc(Br)cc2)C1c1ccc(Cl)cc1 (centres unmarked) [Example 45, 4-Acetyl-5-(4-chlorophenyl)-1-[2-(4-bromophenyl)-ethyl]-3-hydroxy-1,5-dihydro-pyrrol-2-one] | 5.38 | < 3.70 |
| CC(=O)C1=C(O)C(=O)N(CCc2ccc(Cl)cc2)C1c1ccc(Cl)cc1 (centres unmarked) [Example 46, 4-Acetyl-5-(4-chlorophenyl)-1-[2-(4-chlorophenyl)-ethyl]-3-hydroxy-1,5-dihydro-pyrrol-2-one] | 5.36 | < 3.70 |
| CC(=O)C1=C(O)C(=O)N(CCc2ccc(Cl)cc2Cl)C1c1ccc(Br)cc1 (centres unmarked) [Example 47, 4-Acetyl-5-(4-bromophenyl)-1-[2-(2,4-dichlorophenyl)-ethyl]-3-hydroxy-1,5-dihydro-pyrrol-2-one] | 5.72 | < 3.70 |
